Data from ChEMBL document CHEMBL2203210, “SAR and in vivo evaluation of 4-aryl-2-aminoalkylpyrimidines as potent and selective Janus kinase 2 (JAK2) inhibitors” (Bioorg Med Chem Lett, 2012).
pIC50: −log10 of the molar value. ≈ marks a conversion by molar mass, not a printed value.

Assays:
[1] = target: T1, Tyrosine-protein kinase JAK2 (Homo sapiens, UniProt O60674)
Description: Inhibition of JAK2 in HEL 92.1.7 cells assessed as inhibition of STAT3 phosphorylation

[2] = target: T1, Tyrosine-protein kinase JAK2; remark: listed apart in the source
Description: Inhibition of JAK2 in HEL 92.1.7 cells assessed as inhibition of STAT1 phosphorylation

[3] = target: T2, Tyrosine-protein kinase JAK3 (Homo sapiens, UniProt P52333)
T2 sequence (P52333 whole entry): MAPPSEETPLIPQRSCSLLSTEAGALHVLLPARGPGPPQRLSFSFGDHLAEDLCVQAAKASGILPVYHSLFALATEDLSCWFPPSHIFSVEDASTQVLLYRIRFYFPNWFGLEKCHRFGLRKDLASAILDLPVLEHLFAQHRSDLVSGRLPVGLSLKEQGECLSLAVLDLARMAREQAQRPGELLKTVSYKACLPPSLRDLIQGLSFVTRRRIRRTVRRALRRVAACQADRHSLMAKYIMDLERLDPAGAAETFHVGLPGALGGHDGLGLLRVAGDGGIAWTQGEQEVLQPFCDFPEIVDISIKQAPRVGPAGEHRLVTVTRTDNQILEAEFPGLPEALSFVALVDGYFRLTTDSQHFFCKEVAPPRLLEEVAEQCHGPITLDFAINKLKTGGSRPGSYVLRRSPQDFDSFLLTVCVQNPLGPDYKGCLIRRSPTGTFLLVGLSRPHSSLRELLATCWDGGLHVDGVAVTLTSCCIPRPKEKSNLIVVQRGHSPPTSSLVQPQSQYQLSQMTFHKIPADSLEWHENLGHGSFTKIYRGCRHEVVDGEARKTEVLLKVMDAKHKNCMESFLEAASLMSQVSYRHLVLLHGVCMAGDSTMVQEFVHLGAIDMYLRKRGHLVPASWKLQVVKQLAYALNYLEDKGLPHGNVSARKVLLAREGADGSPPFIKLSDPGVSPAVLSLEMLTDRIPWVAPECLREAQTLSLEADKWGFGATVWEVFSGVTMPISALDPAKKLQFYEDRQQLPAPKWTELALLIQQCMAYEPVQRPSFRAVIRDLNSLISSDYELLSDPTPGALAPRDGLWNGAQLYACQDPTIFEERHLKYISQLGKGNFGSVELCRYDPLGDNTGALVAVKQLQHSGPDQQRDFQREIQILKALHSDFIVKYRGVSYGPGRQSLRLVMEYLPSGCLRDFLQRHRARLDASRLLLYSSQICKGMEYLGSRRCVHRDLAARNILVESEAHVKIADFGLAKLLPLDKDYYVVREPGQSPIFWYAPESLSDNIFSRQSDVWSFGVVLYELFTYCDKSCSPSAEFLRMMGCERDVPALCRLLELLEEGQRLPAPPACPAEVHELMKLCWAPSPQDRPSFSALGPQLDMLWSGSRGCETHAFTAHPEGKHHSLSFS

[4] = target: T1, Tyrosine-protein kinase JAK2; remark: listed apart in the source
[5] = Selectivity ratio of IC50 for JAK3 to IC50 for JAK2
[6] = Kinetic solubility of the compound; format: physicochemical; conditions: read-out: Kinetic_solubility

T1 sequence (O60674 whole entry): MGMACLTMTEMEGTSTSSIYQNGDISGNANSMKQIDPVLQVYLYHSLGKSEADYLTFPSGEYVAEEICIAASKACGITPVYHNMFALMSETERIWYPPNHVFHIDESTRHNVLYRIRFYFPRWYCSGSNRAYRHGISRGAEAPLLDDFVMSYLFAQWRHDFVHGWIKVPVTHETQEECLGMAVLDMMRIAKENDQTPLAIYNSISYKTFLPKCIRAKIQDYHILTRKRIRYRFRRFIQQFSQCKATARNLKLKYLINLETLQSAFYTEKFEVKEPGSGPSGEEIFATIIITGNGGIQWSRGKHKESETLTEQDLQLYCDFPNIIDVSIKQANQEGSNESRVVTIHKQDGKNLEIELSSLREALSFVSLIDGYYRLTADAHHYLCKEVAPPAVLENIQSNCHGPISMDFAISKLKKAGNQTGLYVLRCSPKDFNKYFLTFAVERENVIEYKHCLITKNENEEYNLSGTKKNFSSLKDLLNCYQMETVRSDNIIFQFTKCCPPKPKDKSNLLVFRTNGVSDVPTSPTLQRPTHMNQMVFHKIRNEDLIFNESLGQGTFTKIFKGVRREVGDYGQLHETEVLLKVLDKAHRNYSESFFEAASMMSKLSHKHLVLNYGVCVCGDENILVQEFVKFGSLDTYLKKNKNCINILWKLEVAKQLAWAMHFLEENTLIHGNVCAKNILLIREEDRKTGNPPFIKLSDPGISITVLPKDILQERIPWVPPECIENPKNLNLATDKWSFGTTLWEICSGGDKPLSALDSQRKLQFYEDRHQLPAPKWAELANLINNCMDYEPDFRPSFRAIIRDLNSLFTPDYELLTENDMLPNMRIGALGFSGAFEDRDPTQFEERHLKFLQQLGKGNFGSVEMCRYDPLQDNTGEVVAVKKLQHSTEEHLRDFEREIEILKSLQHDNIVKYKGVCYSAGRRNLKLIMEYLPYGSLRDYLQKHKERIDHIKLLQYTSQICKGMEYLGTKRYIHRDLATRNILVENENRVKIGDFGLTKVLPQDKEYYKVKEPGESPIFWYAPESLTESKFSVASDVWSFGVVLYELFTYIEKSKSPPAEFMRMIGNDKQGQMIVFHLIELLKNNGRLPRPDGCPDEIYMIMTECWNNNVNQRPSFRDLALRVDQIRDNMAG

pIC50 [1] | pIC50 [2] | pIC50 [3] | pIC50 [4] | Ratio IC50 [5] | solubility kinetic [6] | SMILES
 | 5.19 | < 6.01 | 8.36 |  |  | CC(=O)Nc1ccc(-c2nc(Nc3ccc(N4CCOCC4)cc3)ncc2F)cc1
 | < 4.52 | 7.21 | 9.05 |  |  | O=C1CC[C@H](C(=O)Nc2ccc(-c3ccnc(Nc4ccc(N5CCOCC5)cc4)n3)cc2)N1
6.10 | 6.01 | < 6.01 |  | > 250 |  | CC(=O)Nc1ccc(-c2ccnc(Nc3ccc(N4CCOCC4)cc3)n2)cc1
5.86 | 6.21 | 6.80 | 8.57 |  |  | N[C@H](CO)C(=O)Nc1ccc(-c2ccnc(Nc3ccc(N4CCOCC4)cc3)n2)cc1
 | < 4.52 | < 6.01 | < 6.01 |  |  | CC(=O)Nc1ccc(-c2cc(C)nc(Nc3ccc(N4CCOCC4)cc3)n2)cc1
5.98 | 6.13 | 6.32 | 8.28 |  |  | CN1CCC[C@@H]1C(=O)Nc1ccc(-c2ccnc(Nc3ccc(N4CCOCC4)cc3)n2)cc1
5.82 | 5.98 | 6.53 | 8.06 |  |  | C[C@H](N)C(=O)Nc1ccc(-c2ccnc(Nc3ccc(N4CCOCC4)cc3)n2)cc1
5.66 | 5.84 |  | 8.04 |  |  | CCN1CCC[C@@H]1C(=O)Nc1ccc(-c2ccnc(Nc3ccc(N4CCOCC4)cc3)n2)cc1
6.23 | 6.21 | < 6.01 | 8.38 |  |  | CC(=O)Nc1ccc(-c2ccnc(Nc3cccc(N4CCOCC4)c3)n2)cc1
6.34 | 6.48 | 6.51 | 8.77 |  |  | C[C@@H](N)C(=O)Nc1ccc(-c2ccnc(Nc3ccc(N4CCOCC4)cc3)n2)cc1
 | < 4.52 | 6.43 | 8.24 |  |  | O=C(Nc1ccc(-c2ccnc(Nc3ccc(N4CCOCC4)cc3)n2)cc1)[C@H]1CCNC1
 |  | 6.98 |  |  |  | CC(=O)Nc1ccc(-c2nc(Nc3ccc(N4CCOCC4)cc3)ncc2C)cc1

Further lines, the compound ahead of its results:

SMILES | pIC50 [1] | pIC50 [2] | pIC50 [3] | pIC50 [4] | Ratio IC50 [5] | solubility kinetic [6]
CC(=O)Nc1ccc(-c2ccnc(Nc3cccc(N4CCCCC4)c3)n2)cc1 | 5.88 | 6.02 | < 6.01 | 8.19 |  | 
CC(=O)Nc1ccc(-c2ccnc(NCC3CN(C(=O)c4c(Cl)cccc4Cl)C3)n2)cc1 |  | < 4.52 | 5.30 | 5.30 |  | 
CC(=O)Nc1ccc(-c2ccnc(Nc3ccccc3)n2)cc1 | 5.71 | 6.00 | 5.94 | 7.89 |  | 234 µM (≈ 71.2 µg/mL)
CC(=O)Nc1ccc(-c2ccnc(Nc3cccc(NC(=O)c4c(Cl)cccc4Cl)c3)n2)cc1 | 6.30 | 6.12 | < 6.01 | 7.90 |  | 
CC(=O)Nc1ccc(-c2nc(Nc3ccc(N4CCOCC4)cc3)ncc2C(F)(F)F)cc1 |  | 5.57 | < 6.01 | 7.40 |  | 
CC(=O)Nc1ccc(-c2ccnc(Nc3cccc(NC(=O)c4c(Cl)cccc4Cl)n3)n2)cc1 |  | < 4.52 | < 6.01 | 6.89 |  | 
CC(=O)Nc1ccc(-c2ccnc(Nc3cccc(NC(=O)c4ccccc4)c3)n2)cc1 |  |  | < 6.01 |  |  | 
CC(=O)Nc1ccc(-c2ccnc(Nc3cccc(NC(=O)c4ccccc4Cl)c3)n2)cc1 |  | < 4.52 | < 6.01 | 8.16 |  | 
CC(=O)Nc1ccc(-c2ccnc(NCCCNC(=O)c3c(Cl)cccc3Cl)n2)cc1 |  | 5.09 | < 5.30 | 6.98 | > 50 | 6.5 µM (≈ 2.98 µg/mL)
CC(=O)Nc1ccc(-c2cc(Nc3ccc(N4CCOCC4)cc3)ncn2)cc1 |  | < 4.52 | < 6.01 | < 6.01 |  | 
CC(=O)Nc1ccc(-c2ccnc(NC3CCCC(NC(=O)c4c(Cl)cccc4Cl)C3)n2)cc1 (configuration not stated) |  | < 4.52 | < 6.01 | < 6.01 |  | 
